# Literature values as cited in patent US12527845B2, “Formulations” (Arecor Limited, priority 2016, dated 2026).
# Conditions: 25° C.
row,SMILES,log K with respect to zinc ion binding
1,"NCCNCCN [DETA, diethylenetriamine]",8.88
2,"O=C(O)CN(CCN(CC(=O)O)CC(=O)O)CC(=O)O [EDTA, ethylenediaminetetraacetate]",14.5
3,"O=C(O)CN(CCOCCOCCN(CC(=O)O)CC(=O)O)CC(=O)O [EGTA, ethyleneglycoltetraacetate]",12.6
4,"NCCNCCNCCN [TETA, triethylenetetramine]",11.95
5,O=C(O)CC(O)(CC(=O)O)C(=O)O [citrate],4.93
6,N[C@@H](CS)C(=O)O [cysteine],9.11
7,N[C@@H](CSSC[C@H](N)C(=O)O)C(=O)O [cystine],6.67
8,NCCN [ethylenediamine],5.69
9,N[C@@H](CCC(=O)O)C(=O)O [glutamate],4.62
10,N[C@@H](CCC(=O)N[C@@H](CS)C(=O)NCC(=O)O)C(=O)O [glutathione],7.98
11,N[C@@H](Cc1c[nH]cn1)C(=O)O [histidine],6.51
12,O=P(O)(O)OP(=O)(O)O [pyrophosphate],8.71
